We go through one compound from paper PMC7823827, “β-Galactosidases from a Sequence-Based Metagenome: Cloning, Expression, Purification and Characterization” (Microorganisms, 2020).

This assay has as its system T1, βgal5.
T1 construct: gene AUR.contig-100_1620_7; GH42; N-terminal 6-His with TEV site (pET-TEV), E. coli BL21(DE3), Ni-NTA
Description: nitrophenol release, absorbance […] nm. It is filed as biochemical. To be noted: buffer Z (phosphate, KCl, MgSO4), 30 °C; 2.5-20 mM substrate; read-out: Km (mM) / ONPG.

For `O=[N+]([O-])c1ccccc1O[C@@H]1O[C@H](CO)[C@H](O)[C@H](O)[C@H]1O` [2-nitrophenyl-β-D-galactopyranoside], the Km came to 14.5 mM.
